Test results published in patent publication US20220218826A1, “COMPOSITION FOR TOPICAL USE FOR PHOTODYNAMIC THERAPY” (UNIVERSIDAD DE LA FRONTERA, priority 2019, published 2022).

Columns and labels:
[1] = tested on: MAL-PDT-resistant HSC-1 cells; test: MTT cell viability after MAL-PDT with EGCG and/or EDTA as adjuvants
Experimental: The in vitro effect of EGCG and EDTA separately as adjuvants of MAL-PDT was assessed HSC-1 cells derived from squamous skin carcinoma were used. Previously, these cells received PDT cycles, in order to select those that are resistant to PDT. Therefore, the model used corresponds to MAL-PDT-resistant HSC-1 cells.
The in vitro photodynamic conventional treatment consisted of incubating these cells with MAL 150 mg/g (photosensitiser) for 4 hours in the dark and after radiating them with 630 nm red light, with fluence of 4 J/cm^2. Cell viability was assessed 24 hours later by the MTT assay.
Subsequently, this protocol was carried out in the same way in these cells, only with the following modification: when adding MAL, different concentrations of EDTA were added (0.5 mg/g, 1 mg/g, 1.5 mg/g, and 2 mg/g) or EGCG (0.2 mg/g, 0.4 mg/g, 0.6 mg/g, 0.8 mg/g). The MAL concentration of 150 mg/g was kept in all tests and experiments with irradiation (light) fluency same to the control at 4 J/cm^2, or without radiation, were carried out.

[2] = tested on: PDT-resistant HSC-1 cells; test: Detection of protoporphyrin IX (PpIX) by flow cytometry; assay type: cell-based; conditions: 4 hours in the dark
Experimental: For this, PDT-resistant cells, obtained as stated in example 1, were incubated with 150 mg/g MAL, plus EGCG (0.1 mg/g, 0.2 mg/g, 0.4 mg/g) or EDTA (1 mg/g, 2 mg/g, 3 mg/g) for 4 hours in the dark. Subsequently, the PpIX content in resistant cells was detected by flow cytometry, since PpIX is a fluorescent compound.

[3] = tested on: PDT-resistant HSC-1 cells; test: Detection of reactive oxygen species (ROS) with Muse Oxidative Stress Kit; assay type: cell-based; conditions: all assessed EGCG concentrations (0.1, 0.2, 0.4 mg/g) + MAL 150 mg/g, 4 hours, red light irradiation
Experimental: Given that in PDT, it is finally the reactive oxygen substances that cause cell damage and death, the production of these compounds was directly assessed. The same model as in example 3 was used, at the same EGCG concentrations stated in FIG. 3A, in order to assess the production of ROS generated in MAL-PDT. Following the previous methodology, after incubating the cells for 4 hours, these received red light irradiation. For ROS detection, these were incubated with a probe (Muse™ Oxidative Stress Kit|MCH100111—Merck Millipore) for 30 minutes and was assessed in a cell analyzer.

O=C(O)CN(CCN(CC(=O)O)CC(=O)O)CC(=O)O [EDTA, ethylenediaminetetraacetic acid]
effect of EDTA in MAL-PDT on viability ([1]; EDTA, only at 2 mg/g, + MAL 150 mg/g, light 4 J/cm^2): significant | population that contained PpIX ([2]; MAL 150 mg/g plus EDTA (1, 2, 3 mg/g)): ≤ 13%

O=C(O[C@@H]1Cc2c(O)cc(O)cc2O[C@@H]1c1cc(O)c(O)c(O)c1)c1cc(O)c(O)c(O)c1 [EGCG, epigallocatechin galate]
survival rate ([1]; EGCG from 0.4 mg/g + MAL 150 mg/g, light 4 J/cm^2): 0 | population that contained PpIX ([2]; MAL 150 mg/g plus EGCG (0.1, 0.2, 0.4 mg/g)): ≤ 18% | ROS concentration relative to the control [3]: doubled or even tripled

COC(=O)CCC(=O)CN [MAL, methyl aminolevulinate]
HSC-1 resistant cells survived PDT ([1]; control MAL-PDT: MAL 150 mg/g, 4 hours in the dark, 630 nm red light, 4 J/cm^2, MTT 24 hours later): ~50% | population that contained PpIX ([2]; MAL 150 mg/g alone): 5%
